Results published in publication PMC3923664, “A Long-Chain Flavodoxin Protects Pseudomonas aeruginosa from Oxidative Stress and Host Bacterial Clearance” (PLoS Genetics, 2014).

Legend:
FldA = molecular target: T1, FldA (Escherichia coli, UniProt P61949); test: UV-visible absorption spectrum of purified holoprotein; format: binding; details: co-purified prosthetic group; 50 mM Tris-HCl pH 8.5
T1 construct: purified; preparation not described
T1 sequence (P61949 2-176): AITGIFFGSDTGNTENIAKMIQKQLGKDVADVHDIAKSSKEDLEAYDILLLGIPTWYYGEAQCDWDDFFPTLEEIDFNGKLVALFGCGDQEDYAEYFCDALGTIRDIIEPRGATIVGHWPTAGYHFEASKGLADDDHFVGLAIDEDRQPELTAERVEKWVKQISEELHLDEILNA

IsiB = molecular target: T2, IsiB (Nostoc sp. PCC 7119, UniProt P0A3E0); test: as above; format: binding; details: co-purified prosthetic group; 50 mM Tris-HCl pH 8.5
T2 construct: recombinant, expressed in E. coli and purified after Fillat et al; long-chain flavodoxin
T2 sequence (P0A3E0 2-170): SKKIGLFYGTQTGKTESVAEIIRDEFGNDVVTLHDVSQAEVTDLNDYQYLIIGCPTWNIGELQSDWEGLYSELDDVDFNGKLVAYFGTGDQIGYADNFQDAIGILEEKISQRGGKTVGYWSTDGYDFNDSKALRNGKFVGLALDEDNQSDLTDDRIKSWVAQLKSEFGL

Question: Which results are given for `Cc1cc2nc3c(=O)[nH]c(=O)nc-3n(C[C@H](O)[C@H](O)[C@H](O)COP(=O)(O)O)c2cc1C` [FMN]?
Answer: UV-visible absorption spectrum of purified holoprotein (FldA): is strongly red-shifted in the flavodoxins from Anabaena and E. coli (Figure 2A); UV-visible absorption spectrum of purified holoprotein (IsiB): is strongly red-shifted in the flavodoxins from Anabaena and E. coli (Figure 2A)
